Laboratory results published in PubChem BioAssay AID1332 (Southern Research Institute, 2008).
≈ marks a conversion by molar mass, not a printed value. Starred links: 1 amine or outer side, 2 acyl side, 3 side chain; linkers in the order of their positions; H or OH if unused. Positions of bridges follow the written chain, without caps; N, C: chain ends. Non-standard residues stand in square brackets, D forms with d. Residues, ends and D or L forms follow the SMILES beside them. *: point of attachment. X2 = NC1=N[C@@H]([C@H](N[*:1])C(=O)[*:2])C[C@H](O)N1; ΔAla(Z-3-ureido) = NC(=O)N/C=C(\N)C(=O)O; β3hOrn = NCCC[C@H](N)CC(=O)*; Dap = NC[C@H](N)C(=O)O

Test system: M. tuberculosis H37Rv growth inhibition
Experiment: Mycobacterium tuberculosis H37Rv growth inhibition, confirmatory dose response, cytotoxicity (AID 1332);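 further: bacteria incubated 7 days before adding Alamar blue readout reagent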

| SMILES | IC90 [µg/mL] |
| --- | --- |
| N=C(N)c1ccc(OCCCCCOc2ccc(C(=N)N)cc2)cc1 | 1.68 (≈ 4.93 µM) |
| NC[C@H]1O[C@H](O[C@H]2[C@H](O)[C@@H](O[C@H]3O[C@H](CO)[C@@H](O)[C@H](N)[C@H]3O)[C@H](N)C[C@@H]2N)[C@H](N)C[C@@H]1O | 1.94 (≈ 4.16 µM) |
| Clc1ccc(CSC(Cn2ccnc2)c2ccc(Cl)cc2Cl)cc1 (stereo not given) | 2.53 (≈ 6.37 µM) |
| CN1CCN(CCCN2c3ccccc3Sc3ccc(Cl)cc32)CC1 | 8.01 (≈ 21.4 µM) |
| O=C(N/N=C/c1ccc([N+](=O)[O-])o1)c1ccc(O)cc1 | 1.54 (≈ 5.58 µM) |
| O=C1NCN(c2ccccc2)C12CCN(CCCC(c1ccc(F)cc1)c1ccc(F)cc1)CC2 | 2.64 (≈ 5.56 µM) |
| CO[C@@H]1[C@@H](OC(N)=O)[C@@H](O)C(Oc2ccc3c(O)c(NC(=O)c4ccc(O)c(CC=C(C)C)c4)c(=O)oc3c2C)OC1(C)C (stereo not given in full) | 4.96 (≈ 8.1 µM) |
| CCn1cc(C(=O)O)c(=O)c2cc(F)c(N3CCNC(C)C3)c(F)c21 (stereo not given) | 0.258 (≈ 0.734 µM) |
| CNCCC=C1c2ccccc2C=Cc2ccccc21 | 17.1 (≈ 65.3 µM) |
| CCn1cc(C(=O)O)c(=O)c2cc(F)c(N3CCNCC3)nc21 | 4.1 (≈ 12.8 µM) |
| CN(C)[C@@H]1C(=O)C(C(N)=O)=C(O)[C@@]2(O)C(=O)C3=C(O)c4c(O)cccc4[C@@](C)(O)[C@H]3C[C@@H]12 | 6.54 (≈ 14.7 µM) |
| Nc1nc(=S)c2ncn([C@@H]3O[C@H](CO)[C@@H](O)[C@H]3O)c2[nH]1 | 11.9 (≈ 39.7 µM) |
| CNc1ncnc2c1ncn2[C@@H]1O[C@H](CO)[C@@H](O)[C@H]1O | 0.822 (≈ 2.92 µM) |
| CN1C[C@H](CNC(=O)OCc2ccccc2)C[C@@H]2c3cccc4c3c(cn4C)C[C@H]21 | 5.85 (≈ 14.5 µM) |
| C(=C\c1ccccc1)/CN1CCN(C(c2ccccc2)c2ccccc2)CC1 | 7.6 (≈ 20.6 µM) |
| Cc1cc(C=Cc2ccc3cc(N(C)C)ccc3[n+]2C)c(C)n1-c1ccccc1 | 0.195 |
| CS(=O)(=O)c1ccc([C@@H](O)[C@@H](CO)NC(=O)C(Cl)Cl)cc1 | 2.42 (≈ 6.81 µM) |
| CN(C)CCCN1c2ccccc2Sc2ccc(Cl)cc21 | 7.45 (≈ 23.4 µM) |
| O=C(N[C@H](CO)[C@H](O)c1ccc([N+](=O)[O-])cc1)C(Cl)Cl | 1.06 (≈ 3.29 µM) |
| Clc1ccc(C(Cn2ccnc2)OCc2c(Cl)cccc2Cl)c(Cl)c1 (stereo not given) | 2.51 (≈ 6.04 µM) |
| Fc1ccc(C(OCCN2CCN(CCCc3ccccc3)CC2)c2ccc(F)cc2)cc1 | 3.58 (≈ 7.94 µM) |
| CN(C)CCCN1c2ccccc2CCc2ccc(Cl)cc21 | 9.56 (≈ 30.4 µM) |
| CCC(C)[C@H]1O[C@]2(C=C[C@@H]1C)C[C@@H]1C[C@@H](C/C=C(\C)C(O[C@H]3C[C@H](OC)C(O[C@H]4C[C@H](OC)[C@@H](O)[C@H](C)O4)[C@H](C)O3)[C@@H](C)/C=C/C=C3\CO[C@@H]4[C@H](O)C(C)=C[C@@H](C(=O)O1)[C@]34O)O2 (stereo not given in full) | 2.72 (≈ 3.12 µM) |

| SMILES | IC90 [µg/mL] |
| --- | --- |
| CN(C)/N=N/c1nc[nH]c1C(N)=O | 0.639 (≈ 3.51 µM) |
| CN(C)CCCN1c2ccccc2Sc2ccc(C(F)(F)F)cc21 | 7.29 (≈ 20.7 µM) |
| C1CCC(C(CC2CCCCN2)C2CCCCC2)CC1 (stereo not given) | 1.99 (≈ 7.16 µM) |
| CN(C)c1ccc(O)c2c1CC1CC3[C@@H](N(C)C)C(=O)C(C(N)=O)=C(O)[C@]3(O)C(=O)C1=C2O (stereo not given in full) | 2.04 (≈ 4.46 µM) |
| N[C@H]1CONC1=O | 2.27 (≈ 22.3 µM) |
| Cc1cccc(CN2CCN(C(c3ccccc3)c3ccc(Cl)cc3)CC2)c1 (stereo not given) | 7.72 (≈ 19.7 µM) |
| CN(CCCCCCCCCCN(C)C(=O)Oc1cccc([N+](C)(C)C)c1)C(=O)Oc1cccc([N+](C)(C)C)c1 | 2.19 |
| CC[C@H](C)[C@H]1O[C@]2(CC[C@@H]1C)C[C@@H]1C[C@@H](C/C=C(\C)[C@@H](O[C@H]3C[C@H](OC)[C@@H](O[C@H]4C[C@H](OC)[C@@H](O)[C@H](C)O4)[C@H](C)O3)[C@@H](C)/C=C/C=C3\CO[C@@H]4[C@H](O)C(C)=C[C@@H](C(=O)O1)[C@]34O)O2 | 1.29 (≈ 1.48 µM) |
| COc1cc(NS(=O)(=O)c2ccc(N)cc2)ncn1 | 3.78 (≈ 13.5 µM) |
| NC(=NCCCCCCN=C(N)/N=C(\N)Nc1ccc(Cl)cc1)/N=C(\N)Nc1ccc(Cl)cc1 | 0.295 (≈ 0.584 µM) |
| CC1COc2c(N3CCN(C)CC3)c(F)cc3c(=O)c(C(=O)O)cn1c23 (stereo not given) | 0.067 (≈ 0.185 µM) |
| C=CCOC(Cn1ccnc1)c1ccc(Cl)cc1Cl (stereo not given) | 2 (≈ 6.73 µM) |
| OCCN1CCN(CCCN2c3ccccc3Sc3ccc(C(F)(F)F)cc32)CC1 | 7.59 (≈ 17.3 µM) |
| COc1cc2cc3c4cc(OC)c(OC)cc4cc[n+]3c(C)c2cc1OC | 2.13 |
| NNC(=O)c1ccncc1 | 10.4 (≈ 75.5 µM) |
| Clc1ccc(COC(Cn2ccnc2)c2ccc(Cl)cc2Cl)cc1 (stereo not given) | 1.98 (≈ 5.18 µM) |
| CCN(CC)C(=S)SSC(=S)N(CC)CC | 0.164 (≈ 0.553 µM) |
| OCCN1CCN(CC/C=C2/c3ccccc3Sc3ccc(C(F)(F)F)cc32)CC1 | 5.46 (≈ 12.6 µM) |
| CN[C@@H]1C(O[C@H]2O[C@H](CO)[C@@H](N)[C@H](O)[C@H]2O)O[C@H]2C[C@@H](N)[C@@H](O[C@H]3[C@H](O)[C@@H](O)[C@H](N)C[C@@H]3N)OC2[C@@H]1O (stereo not given in full) | 3.57 (≈ 6.61 µM) |
| COc1cccc2c1C(=O)c1c(O)c3c(c(O)c1C2=O)C[C@@](O)(C(=O)CO)C[C@@H]3O[C@H]1C[C@H](N)[C@H](O)[C@H](C)O1 | 2.6 (≈ 4.79 µM) |
| NCCC[C@H](N)CC(=O)N[C@H]1CNC(=O)[C@H]([C@H]2C[C@H](O)NC(N)=N2)NC(=O)/C(=C/NC(N)=O)NC(=O)[C@H](CO)NC(=O)[C@H](CO)NC1=O (β3hOrn-[Dap]SS[ΔAla(Z-3-ureido)][X2]; lactam 1-C) | 0.069 (≈ 0.101 µM) |
| O=c1c2ccccc2[se]n1-c1ccccc1 | 2.16 (≈ 7.87 µM) |
